Assay results from patent publication US4956367A, “2-amino-4-morpholino-6-propyl-1,3,5-triazines” (U C B S.A., priority 1988, dated 1990).

Experiment: Toxicity (Irwin's test)
Type: in vivo
Settings: mice, intraperitoneal
Protocol: Progressive doses of the compound to be tested are administered intraperitoneally to groups of three mice until the lethal dose is reached (dose which causes the death of two animals out of three within 48 hours).

Compound	Lethal dose (death of two animals out of three within 48 hours) [mg/kg]
CCCc1nc(NC(=O)Oc2ccccc2)nc(N2CCOCC2)n1 [Compound 28, phenyl (4-morpholino-6-propyl-1,3,5-triazin-2-yl)carbamate]	> 1030
CCCc1nc(NC(=O)c2ccc(Cl)cc2)nc(N2CCOCC2)n1 [Compound 29]	398
CCCc1nc(NC(C)(C)CO)nc(N2CCOCC2)n1 [Compound 8]	886
CCCc1nc(NCC2(O)CCCCC2)nc(N2CCOCC2)n1 [Compound 18]	1007
CCCc1nc(NCC(O)CC)nc(N2CCOCC2)n1 (stereo not shown) [Compound 6]	886
CCCc1nc(NCCOC(=O)c2ccccc2)nc(N2CCOCC2)n1 [Compound 39]	> 1114
CCCc1nc(N2CCOCC2)nc(N(C)C(=O)c2ccc(OC)cc2)n1 [Compound 32]	1222
CCCc1nc(NC(=O)c2ccc(OC)cc2)nc(N2CCOCC2)n1 [Compound 31]	511
CCCc1nc(N2CCOCC2)nc(N(C)C(=O)c2ccc(C)cc2)n1 [Compound 34]	1174
CCCc1nc(NCCOC(N)=O)nc(N2CCOCC2)n1 [Compound 42, 2-[[2-[(Aminocarbonyl)oxy]ethyl]amino]-4-morpholino-6-propyl-1,3,5-triazine]	> 931
CCCc1nc(NCCOC)nc(N2CCOCC2)n1 [Compound 10, 2-[(2-methoxyethyl)amino]-4-morpholino-6-propyl-1,3,5-triazine]	844
CCCc1nc(N2CCOCC2)nc(N(C)C(C)=O)n1	947
CCCc1nc(NO)nc(N2CCOCC2)n1 [Compound 2, 2-(hydroxyamino)-4-morpholino-6-propyl-1,3,5-triazine]	718
CCCc1nc(NCCCCO)nc(N2CCOCC2)n1 [Compound 4]	886
CCCc1nc(NCC(C)O)nc(N2CCOCC2)n1 (stereo not shown) [Compound 5]	563
CCCc1nc(N2CCOCC2)nc(N2CCCC2CO)n1 (stereo not shown) [Compound 19]	1031
CCCc1nc(NC(C)=O)nc(N2CCOCC2)n1	905
CCCc1nc(NC(CO)C(O)c2ccccc2)nc(N2CCOCC2)n1 (stereo not shown) [Compound 15]	1121
CCCc1nc(NCCOC(=O)C(C)C)nc(N2CCOCC2)n1 [Compound 38]	> 1012
CCCc1nc(NC(=O)Cc2ccccc2)nc(N2CCOCC2)n1 [Compound 23]	> 1024
CCCc1nc(NC(=O)N(C)C)nc(N2CCOCC2)n1 [Compound 41, N,N-Dimethyl-N'-(4-morpholino-6-propyl-1,3.5-triazin-2-yl)-urea]	294
CCCc1nc(N2CCOCC2)nc(N(CCO)Cc2ccccc2)n1 [Compound 14]	> 1073
CCCc1nc(N2CCOCC2)nc(N(C)C(=O)c2ccc(Cl)cc2)n1 [Compound 30]	1125
CCCc1nc(NC(C)(CO)CO)nc(N2CCOCC2)n1 [Compound 13]	934
CCCc1nc(NC(=O)C(C)C)nc(N2CCOCC2)n1 [Compound 24]	880
